2 compounds from patent publication US11220503B2, “Phthalazine derivatives, preparation method, pharmaceutical composition and usage thereof” (Shanghai SIMR Biotech Co., Ltd., priority 2015, dated 2022) can be followed below.

The nature of data set [1]: Compound tissue distribution (brain/plasma). Type of data set: in vivo. The following applies: brain and plasma, po; rat, 10 mg/kg p.o. in 50% PEG400, one hour; read-out: Brain/Plasma ratio. The procedure: The distribution ratio of blood brain tissue was calculated by comparing the concentration of compound in rat plasma and brain tissue. The experimental animals were divided into two groups, the plasma group and the brain group, each with three. To measure brain to plasma ratio, rats were administed compounds in 50% PEG400 p.o. at a dose of 10 mg compound to be tested/kg. One hour later, plasma and brain samples were taken. Concentrations of compounds in brain and plasma were detected using LC-MS/MS-AJ (Triple Quad 5500) assay and analyzed using Phoenix WinNonlin.
We also measured the brain to plasma ratio of compound #24. The experimental animals were divided into two groups, the plasma group and the brain group, each with three. To measure the brain to plasma ratio, Rats were administered compounds (1 mg/kg in 5% DMSO+70% PEG400+25% H2O p.o.). One hour later, plasma and brain samples were taken. Concentrations of compounds in brain and plasma were detected using a LC-MS/MS-AJ (Triple Quad 5500) assay and analyzed using Phoenix WinNonlin.

The target in the next data set is T1, α5β3γ2 receptor (Homo sapiens, UniProt P18507+P31644).
T1 construct: expressed in transfected cells; host or cells: HEK-293 (stably transfected)
Description: Cell level screening: whole cell patch clamp, inverse agonist efficacy. The data set is classed as cell-based. The note with it: for inverse agonism efficacy of the compound/α5IA inverse agonism efficacy: ratio to α5IA, compound 100 nM.

A short description of data set [2]: Tissue distribution of the compounds (brain/plasma). Type of data set: in vivo. The following applies: brain and plasma, po; rat, 10 mg/kg p.o. in 50% PEG400, one hour; read-out: Brain/Plasma ratio. The procedure:
The distribution ratio of blood brain tissue was calculated by comparing the concentration of compound in rat plasma and brain tissue. The experimental animals were divided into two groups, the plasma group and the brain group, each with three. Rats were administed compounds in 50% PEG400 p.o. at a dose of 10 mg compound to be tested/kg. One hour later, plasma and brain samples were taken. Concentrations of compounds in brain and plasma were detected using LC-MS/MS-A (Triple Quad 5500) assay and analyzed using Phoenix WinNonlin.

Where [3] appears, read: HEK293, compound 100 nM, GABA 0.05-0.1 μM, HEK293 α5β3γ2, clamped at −60 mV, (Ipost-Ipre)*100/Ipre, read-out: inverse agonism efficacy(%).

Like-named read-outs stand apart in the source and are kept apart here.

T1 sequence (P31644 32-462): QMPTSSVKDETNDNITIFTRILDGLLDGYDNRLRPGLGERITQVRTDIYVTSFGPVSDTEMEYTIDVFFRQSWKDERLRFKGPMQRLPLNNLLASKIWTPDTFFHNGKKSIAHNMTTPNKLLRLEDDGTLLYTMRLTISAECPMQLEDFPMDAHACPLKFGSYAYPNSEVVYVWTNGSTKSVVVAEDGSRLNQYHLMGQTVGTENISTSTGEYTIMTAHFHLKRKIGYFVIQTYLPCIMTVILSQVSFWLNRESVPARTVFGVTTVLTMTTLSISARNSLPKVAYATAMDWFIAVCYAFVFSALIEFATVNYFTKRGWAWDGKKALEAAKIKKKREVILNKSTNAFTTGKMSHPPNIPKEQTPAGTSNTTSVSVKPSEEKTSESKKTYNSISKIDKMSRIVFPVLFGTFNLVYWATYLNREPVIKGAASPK
T1 sequence (P28472 26-473 isoform P28472-2 partner limits assumed): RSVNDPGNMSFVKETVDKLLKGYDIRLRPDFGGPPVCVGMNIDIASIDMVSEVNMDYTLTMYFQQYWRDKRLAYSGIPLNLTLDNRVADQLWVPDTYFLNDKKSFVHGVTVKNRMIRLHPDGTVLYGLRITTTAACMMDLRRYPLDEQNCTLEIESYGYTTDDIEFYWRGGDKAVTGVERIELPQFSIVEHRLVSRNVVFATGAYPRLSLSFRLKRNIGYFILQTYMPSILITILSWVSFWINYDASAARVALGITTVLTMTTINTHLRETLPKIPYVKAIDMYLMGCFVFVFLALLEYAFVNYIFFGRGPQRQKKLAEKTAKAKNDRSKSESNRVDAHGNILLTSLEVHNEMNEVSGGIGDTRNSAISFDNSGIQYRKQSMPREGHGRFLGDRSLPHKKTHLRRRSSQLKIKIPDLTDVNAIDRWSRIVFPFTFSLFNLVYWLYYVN
T1 sequence (P18507 40-475): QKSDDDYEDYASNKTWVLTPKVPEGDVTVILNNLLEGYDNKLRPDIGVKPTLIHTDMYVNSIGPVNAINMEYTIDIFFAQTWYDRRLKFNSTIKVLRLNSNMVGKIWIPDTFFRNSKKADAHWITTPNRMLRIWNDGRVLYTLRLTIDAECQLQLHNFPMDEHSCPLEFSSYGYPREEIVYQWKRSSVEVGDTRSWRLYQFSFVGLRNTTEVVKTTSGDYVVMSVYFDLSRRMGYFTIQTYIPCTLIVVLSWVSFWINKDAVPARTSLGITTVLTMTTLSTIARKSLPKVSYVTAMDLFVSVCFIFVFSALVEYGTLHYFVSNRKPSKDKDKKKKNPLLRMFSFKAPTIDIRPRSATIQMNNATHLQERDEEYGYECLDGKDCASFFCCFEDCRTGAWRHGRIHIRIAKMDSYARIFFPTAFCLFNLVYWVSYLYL

Consider `CCNC(=O)c1ccc(COc2nn3c(-c4cc(C)on4)nnc3c3ccccc23)nc1` [Compound 07, N-ethyl-6-(((3-(5-methylisoxazol-3-yl)-[1,2,4]triazolo[3,4-a]phthalazin-6-yl)oxy)methyl)nicotinamide], for which the Kp at 1 h in data set [1] and in data set [2] was less than 0.01 in each case. The inhibition at 0.1 µM on α5β3γ2 receptor (setting [3]) came out at 24.8%; at α5β3γ2 receptor (dose-efficacy, Con. 100 nM, single replicates, read-out: Inverse agonism-Efficacy) it was 45.8%. In addition, on α5β3γ2 receptor (dose-efficacy, Con. 10 nM, single replicates, read-out: Inverse agonism-Efficacy), the inhibition at 0.01 µM amounted to 25.5%. Further, on α5β3γ2 receptor (dose-efficacy, Con. 50 nM, single replicates, read-out: Inverse agonism-Efficacy), the inhibition at 0.05 µM was found to be 40%. Moreover, at α5β3γ2 receptor (dose-efficacy, Con. 1000 nM, single replicates, read-out: Inverse agonism-Efficacy), the inhibition at 1 µM amounted to 39.1%. Also, the “inverse agonism efficacy of the compound/α5IA inverse agonism efficacy” value at α5β3γ2 receptor is 1.1.

Take `COCCNC(=O)c1ccc(COc2nn3c(-c4cc(C)on4)nnc3c3ccccc23)nc1` [Compound 08, N-(2-methoxyethyl)-6-(((3-(5-methylisoxazol-3-yl)-[1,2,4]triazolo[3,4-a]phthalazin-6-yl)oxy)methyl)nicotinamide]: the Kp at 1 h in data set [1] and in data set [2] was less than 0.01 in each case. Besides, at α5β3γ2 receptor (setting [3]), the inhibition at 0.1 µM was determined as 34%. Besides, on α5β3γ2 receptor, the “inverse agonism efficacy of the compound/α5IA inverse agonism efficacy” value was 1.508.
